Positions of bridges follow the written chain, without caps; N, C: chain ends. Non-standard residues stand in square brackets, D forms with d. Residues, ends and D or L forms follow the SMILES beside them. Trp(1-CH2COOH) = N[C@@H](Cc1cn(CC(=O)O)c2ccccc12)C(=O)O; NMePhe(3-Cl) = CN[C@@H](Cc1cccc(Cl)c1)C(=O)O; 3Pal(6-NH2) = Nc1ccc(C[C@H](N)C(=O)O)cn1; Lys(N3) = [N-]=[N+]=NCCCC[C@H](N)C(=O)O; NMeY = CN[C@@H](Cc1ccc(O)cc1)C(=O)O; 3Pal = N[C@@H](Cc1cccnc1)C(=O)O; 4Pal = N[C@@H](Cc1ccncc1)C(=O)O; PEG4 = NCCOCCOCCOCCOCCC(=O)O

The target in one assay is T1, human transferrin receptor (hTfR) (Homo sapiens, UniProt P02786).
T1 construct: made in house
T1 sequence (P02786 89-760 limits assumed): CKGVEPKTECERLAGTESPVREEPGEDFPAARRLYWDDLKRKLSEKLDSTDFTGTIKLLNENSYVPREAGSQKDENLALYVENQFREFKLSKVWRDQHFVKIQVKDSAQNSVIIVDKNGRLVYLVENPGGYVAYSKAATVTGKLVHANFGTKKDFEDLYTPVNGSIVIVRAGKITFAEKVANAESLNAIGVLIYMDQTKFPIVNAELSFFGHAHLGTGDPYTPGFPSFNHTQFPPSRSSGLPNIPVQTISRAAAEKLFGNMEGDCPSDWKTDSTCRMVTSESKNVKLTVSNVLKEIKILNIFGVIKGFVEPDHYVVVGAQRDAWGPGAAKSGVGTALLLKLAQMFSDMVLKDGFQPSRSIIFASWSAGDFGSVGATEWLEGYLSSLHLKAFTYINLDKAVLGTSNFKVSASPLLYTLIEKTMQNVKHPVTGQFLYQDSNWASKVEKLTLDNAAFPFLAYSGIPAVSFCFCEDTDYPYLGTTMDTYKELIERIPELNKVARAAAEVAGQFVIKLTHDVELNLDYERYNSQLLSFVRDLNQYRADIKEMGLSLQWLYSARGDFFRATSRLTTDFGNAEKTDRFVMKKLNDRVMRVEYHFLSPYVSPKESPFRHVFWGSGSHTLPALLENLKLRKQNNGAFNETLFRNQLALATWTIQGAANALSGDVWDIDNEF
The assay can be described thus: Evaluation of molecular interaction between transferrin receptor (hTfR) and peptide using surface plasmon resonance (SPR). The assay is classed as binding. The note with it: KD class for binding to hTfR by SPR; peptide with the linker shown in the same line; 'low signal indicates no activity'; read-out: SPR. Put shortly:
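Using a Ni-NTA surface bearing covalently coupled hTfR dimer, peptides were tested at five concentrations from 5 to 100 nM. Running buffer was 10 mM HEPES pH 8.0, 150 mM NaCl, 0.05% Tween 20, 0.1% BSA, 1.0% DMSO; single-cycle sensorgrams were least-squares fitted for KD.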
For orientation: Surface plasmon resonance follows binding to a sensor surface in real time, without labels.
For the molecule `CC[C@H](C)[C@@H]1NC(=O)[C@H](Cc2ccc(O)cc2)NC(=O)[C@H](Cc2ccc(O)cc2)NC(=O)[C@H](CC(N)=O)NC(=O)[C@H](Cc2c[nH]c3ccc(Cl)cc23)NC(=O)[C@H](C(C)C)NC(=O)[C@H](Cc2ccccc2)N(C)C(=O)[C@H](C(C)C)NC(=O)[C@H](C)NC(=O)CSC[C@@H](C(=O)NCC(=O)N[C@@H](CCCCN=[N+]=[N-])C(N)=O)NC(=O)[C@H](Cc2ccc(O)cc2)N(C)C(=O)[C@H](Cc2ccccc2)NC(=O)[C@H](CCCNC(=N)N)NC(=O)[C@H](CCCNC(=N)N)NC(=O)[C@H]([C@@H](C)CC)NC1=O` [894_3153], the Kd is 1 to 100 nM.

As to `CC[C@H](C)[C@@H]1NC(=O)[C@H](Cc2ccc(OCC(=O)O)cc2)NC(=O)[C@H](Cc2ccc(O)cc2)NC(=O)[C@H](CC(N)=O)NC(=O)[C@H](Cc2cn(CC(=O)O)c3ccccc23)NC(=O)[C@H](C(C)C)NC(=O)[C@H](Cc2cccc(Cl)c2)N(C)C(=O)[C@H](C(C)C)NC(=O)[C@H](C)NC(=O)CSC[C@@H](C(=O)NCC(=O)N[C@@H](CCCCNC(=O)OC[C@@H]2[C@@H]3CCC#CCC[C@@H]32)C(N)=O)NC(=O)[C@H](Cc2ccc(O)cc2)N(C)C(=O)[C@H](Cc2ccccc2)NC(=O)[C@H](CCCNC(=N)N)NC(=O)[C@H](CCC(=O)NCCOCCOCCOCCOCCOCCOCCOCCOC)NC(=O)[C@H]([C@@H](C)CC)NC1=O` [894_3199], the Kd was under 1 nM. Same read-out and setting: under `CC[C@H](C)[C@@H]1NC(=O)[C@H](Cc2ccc(OCC(=O)O)cc2)NC(=O)[C@H](Cc2ccc(O)cc2)NC(=O)[C@H](CC(N)=O)NC(=O)[C@H](Cc2c[nH]c3ccccc23)NC(=O)[C@H](C(C)C)NC(=O)[C@H](Cc2cccc(Cl)c2)N(C)C(=O)[C@H](C(C)C)NC(=O)[C@H](C)NC(=O)CSC[C@@H](C(=O)NCCOCCOCCOCCOCCC(N)=O)NC(=O)[C@H](Cc2ccc(O)cc2)N(C)C(=O)[C@H](Cc2ccncc2)NC(=O)[C@H](CCCNC(=N)N)NC(=O)[C@H](CCCNC(=N)N)NC(=O)[C@H]([C@@H](C)CC)NC1=O` [894_0364] stands 1 to 100 nM; under `CC[C@H](C)[C@@H]1NC(=O)[C@H](Cc2ccc(O)cc2)NC(=O)[C@H](Cc2ccc(O)cc2)NC(=O)[C@H](CC(N)=O)NC(=O)[C@H](Cc2c[nH]c3ccc(Cl)cc23)NC(=O)[C@H](C(C)C)NC(=O)[C@H](Cc2ccccc2)N(C)C(=O)[C@H](C(C)C)NC(=O)[C@H](C)NC(=O)CSC[C@@H](C(=O)NCC(=O)N[C@@H](CCCCN=[N+]=[N-])C(N)=O)NC(=O)[C@H](Cc2ccc(O)cc2)N(C)C(=O)[C@H](Cc2ccc(O)cc2)NC(=O)[C@H](CCCNC(=N)N)NC(=O)[C@H](CCCNC(=N)N)NC(=O)[C@H]([C@@H](C)CC)NC1=O` [894_3161], 1 to 100 nM; under `CC[C@H](C)[C@@H]1NC(=O)[C@H](Cc2cccnc2)NC(=O)[C@H](Cc2ccc(N)nc2)NC(=O)[C@H](CC(N)=O)NC(=O)[C@H](Cc2c[nH]c3ccccc23)NC(=O)[C@H](C(C)C)NC(=O)[C@H](Cc2cccc(Cl)c2)N(C)C(=O)[C@H](C(C)C)NC(=O)[C@H](C)NC(=O)CSC[C@@H](C(=O)NCC(=O)N[C@@H](CCCCN=[N+]=[N-])C(N)=O)NC(=O)[C@H](Cc2ccc(O)cc2)N(C)C(=O)[C@H](Cc2ccncc2)NC(=O)[C@H](CCCNC(=N)N)NC(=O)[C@H](CCCNC(=N)N)NC(=O)[C@H]([C@@H](C)CC)NC1=O` [894_3189] ({CH2CO}-AV[NMePhe(3-Cl)]VWN[3Pal(6-NH2)][3Pal]IIRR[4Pal][NMeY]CG[Lys(N3)]-NH2; thioether N-15), 1 to 100 nM.

The same assay, now with this note: peptide with linker, surface plasmon resonance; read-out: SPR (KD class for binding to hTfR).
Take `CC[C@H](C)[C@@H]1NC(=O)[C@H](Cc2ccc(OCC(=O)O)cc2)NC(=O)[C@H](Cc2ccc(O)cc2)NC(=O)[C@H](CC(N)=O)NC(=O)[C@H](Cc2c[nH]c3ncccc23)NC(=O)[C@H](C(C)C)NC(=O)[C@H](Cc2cccc(Cl)c2)N(C)C(=O)[C@H](C(C)C)NC(=O)[C@H](C)NC(=O)CSC[C@@H](C(=O)NCCOCCOCCOCCOCCC(N)=O)NC(=O)[C@H](Cc2ccc(O)cc2)N(C)C(=O)[C@H](Cc2cccc(C(=O)O)c2)NC(=O)[C@H](CCCNC(=N)N)NC(=O)[C@H](CCC(=O)NCCOCCOCCOCCOCCOCCOCCOCCOC)NC(=O)[C@H]([C@@H](C)CC)NC1=O` [compound 230]: the Kd lay within 1 to 100 nM. Take `CC[C@H](C)[C@@H]1NC(=O)[C@H](Cc2ccc(O)cc2)NC(=O)[C@H](Cc2ccc(O)cc2)NC(=O)[C@H](CC(N)=O)NC(=O)[C@H](Cc2c[nH]c3ccccc23)N(C)C(=O)[C@H](C(C)C)NC(=O)[C@H](Cc2ccccc2)N(C)C(=O)[C@H](C(C)C)NC(=O)[C@H](C)NC(=O)CSC[C@@H](C(=O)NCC(=O)N[C@H](CCC(=O)O)C(=O)N[C@H](CCC(=O)O)C(=O)N[C@H](CCC(=O)O)C(=O)N[C@H](CO)C(=O)N[C@H](CO)C(=O)N[C@@H](CCCCN=[N+]=[N-])C(N)=O)NC(=O)[C@H](Cc2ccc(O)cc2)N(C)C(=O)[C@H](Cc2ccc(O)cc2)NC(=O)[C@H](CCCNC(=N)N)NC(=O)[C@H](CCCCN)NC(=O)[C@H]([C@@H](C)CC)NC1=O` [compound 241]: the Kd lay within 1 to 100 nM.

Still in this assay, the particulars now being: surface plasmon resonance, binding to hTfR; KD class symbol; read-out: SPR (KD value).
Turning to `CC[C@H](C)[C@@H]1NC(=O)[C@H](Cc2ccc(OC)cc2)NC(=O)[C@H](Cc2ccc(O)cc2)NC(=O)[C@H](CC(N)=O)NC(=O)[C@H](Cc2c[nH]c3ccc(Cl)cc23)NC(=O)[C@H](C(C)C)NC(=O)[C@H](Cc2ccc(F)cc2)N(C)C(=O)[C@H](C(C)C)NC(=O)[C@H](C)NC(=O)CSC[C@@H](C(=O)NCCOCCOCCOCCOCCC(N)=O)NC(=O)[C@H](Cc2ccc(O)cc2)N(C)C(=O)[C@H](Cc2ccccc2)NC(=O)[C@@H](CCCNC(=N)N)NC(=O)[C@H](CCCNC(=N)N)N(C)C(=O)[C@H]([C@@H](C)CC)NC1=O` [compound 27], the Kd was in the range of 1 to 100 nM. The same measure, in the same setting: under `CC[C@H](C)[C@@H]1NC(=O)[C@H](Cc2cccnc2)NC(=O)[C@H](Cc2ccc(N)nc2)NC(=O)[C@H](CC(N)=O)NC(=O)[C@H](Cc2cn(CC(=O)O)c3ccccc23)NC(=O)[C@H](C(C)C)NC(=O)[C@H](Cc2cccc(Cl)c2)N(C)C(=O)[C@H](C(C)C)NC(=O)[C@H](C)NC(=O)CSC[C@@H](C(=O)NCCOCCOCCOCCOCCC(N)=O)NC(=O)[C@H](Cc2ccc(O)cc2)N(C)C(=O)[C@H](Cc2ccncc2)NC(=O)[C@H](CCCNC(=N)N)NC(=O)[C@H](CCCNC(=N)N)NC(=O)[C@H]([C@@H](C)CC)NC1=O` [compound 49] ({CH2CO}-AV[NMePhe(3-Cl)]V[Trp(1-CH2COOH)]N[3Pal(6-NH2)][3Pal]IIRR[4Pal][NMeY]C[PEG4]-NH2; thioether N-15) stands 1 to 100 nM. On the same count and under the same terms, under `CC[C@H](C)[C@@H]1NC(=O)[C@H](Cc2ccc(O)cc2)NC(=O)[C@H](Cc2ccc(O)cc2)NC(=O)[C@H](CC(N)=O)NC(=O)[C@H](Cc2c[nH]c3ccc(Cl)cc23)NC(=O)[C@H](C(C)C)NC(=O)[C@H](Cc2ccccc2)N(C)C(=O)[C@H](C(C)C)NC(=O)[C@H](C)NC(=O)CSC[C@@H](C(=O)NCCOCCOCCOCCOCCC(N)=O)NC(=O)[C@H](Cc2ccc(O)cc2)N(C)C(=O)[C@H](Cc2ccccc2)NC(=O)[C@@H](CCCNC(=N)N)NC(=O)[C@H](CCCNC(=N)N)NC(=O)[C@H]([C@@H](C)CC)NC1=O` [compound 20] stands 1 to 100 nM; under `CC[C@H](C)[C@@H]1NC(=O)[C@H](Cc2ccc(OC)cc2)NC(=O)[C@H](Cc2ccc(O)cc2)NC(=O)[C@H](CC(N)=O)NC(=O)[C@H](Cc2c[nH]c3ccccc23)N(C)C(=O)[C@H](C(C)C)NC(=O)[C@H](Cc2cccc(Cl)c2)N(C)C(=O)[C@H](C(C)C)NC(=O)[C@H](C)N(C)C(=O)CSC[C@@H](C(=O)NCCOCCOCCOCCOCCC(N)=O)NC(=O)[C@H](Cc2ccc(O)cc2)N(C)C(=O)[C@H](Cc2ccccc2)NC(=O)[C@@H](C)NC(=O)[C@H](CCCNC(=N)N)NC(=O)[C@H]([C@@H](C)CC)NC1=O` [compound 10], 1 to 100 nM. The same measure, in the same setting: under `CC[C@H](C)[C@@H]1NC(=O)[C@H](Cc2ccc(O)cc2)NC(=O)[C@H](Cc2ccc(O)cc2)NC(=O)[C@H](CC(N)=O)NC(=O)[C@H](Cc2c[nH]c3ccccc23)N(C)C(=O)[C@H](C(C)C)NC(=O)[C@H](Cc2ccc(F)cc2)N(C)C(=O)[C@H](C(C)C)NC(=O)[C@H](C)NC(=O)CSC[C@@H](C(=O)NCCOCCOCCOCCOCCC(N)=O)NC(=O)[C@H](Cc2ccc(O)cc2)N(C)C(=O)[C@H](Cc2ccccc2)NC(=O)[C@@H](CCCNC(=N)N)NC(=O)[C@H](CCCNC(=N)N)NC(=O)[C@H]([C@@H](C)CC)NC1=O` [compound 28] stands 1 to 100 nM; under `CC[C@H](C)[C@@H]1NC(=O)[C@H](Cc2ccncc2)NC(=O)[C@H](Cc2ccc(O)cc2)NC(=O)[C@H](CC(N)=O)NC(=O)[C@H](Cc2c[nH]c3ccccc23)NC(=O)[C@H](C(C)C)NC(=O)[C@H](Cc2cccc(Cl)c2)N(C)C(=O)[C@H](C(C)C)NC(=O)[C@H](C)NC(=O)CSC[C@@H](C(=O)NCCOCCOCCOCCOCCC(N)=O)NC(=O)[C@H](Cc2ccc(O)cc2)N(C)C(=O)[C@H](Cc2ccccc2)NC(=O)[C@H](CCCNC(=N)N)NC(=O)[C@H](CCCNC(=N)N)NC(=O)[C@H]([C@@H](C)CC)NC1=O` [compound 61] ({CH2CO}-AV[NMePhe(3-Cl)]VWNY[4Pal]IIRRF[NMeY]C[PEG4]-NH2; thioether N-15), 1 to 100 nM; under `CC[C@H](C)[C@@H]1NC(=O)[C@H](Cc2ccc(OC)cc2)NC(=O)[C@H](Cc2ccc(O)cc2)NC(=O)[C@H](CC(N)=O)NC(=O)[C@H](Cc2c[nH]c3ccc(Cl)cc23)NC(=O)[C@H](C(C)C)NC(=O)[C@H](Cc2ccccc2)N(C)C(=O)[C@H](C(C)C)NC(=O)[C@H](C)NC(=O)CSC[C@@H](C(=O)NCCOCCOCCOCCOCCC(N)=O)NC(=O)[C@H](Cc2ccc(O)cc2)N(C)C(=O)[C@H](Cc2ccccc2)NC(=O)[C@H](CCCNC(=N)N)NC(=O)[C@H](CCCNC(=N)N)NC(=O)[C@H]([C@@H](C)CC)NC1=O` [compound 19], under 1 nM.
